Experimental data reported in article PMC3077712 (2010).

What was measured:
Cyclooxygenase-2 (COX-2) [1] = target: T1, Cyclooxygenase-2 (COX-2) (Ovis aries, UniProt P79208); assay: purified enzyme, product formation and regioisomers by RP-HPLC-MS/MS; type: biochemical
T1 sequence (P79208 17-603): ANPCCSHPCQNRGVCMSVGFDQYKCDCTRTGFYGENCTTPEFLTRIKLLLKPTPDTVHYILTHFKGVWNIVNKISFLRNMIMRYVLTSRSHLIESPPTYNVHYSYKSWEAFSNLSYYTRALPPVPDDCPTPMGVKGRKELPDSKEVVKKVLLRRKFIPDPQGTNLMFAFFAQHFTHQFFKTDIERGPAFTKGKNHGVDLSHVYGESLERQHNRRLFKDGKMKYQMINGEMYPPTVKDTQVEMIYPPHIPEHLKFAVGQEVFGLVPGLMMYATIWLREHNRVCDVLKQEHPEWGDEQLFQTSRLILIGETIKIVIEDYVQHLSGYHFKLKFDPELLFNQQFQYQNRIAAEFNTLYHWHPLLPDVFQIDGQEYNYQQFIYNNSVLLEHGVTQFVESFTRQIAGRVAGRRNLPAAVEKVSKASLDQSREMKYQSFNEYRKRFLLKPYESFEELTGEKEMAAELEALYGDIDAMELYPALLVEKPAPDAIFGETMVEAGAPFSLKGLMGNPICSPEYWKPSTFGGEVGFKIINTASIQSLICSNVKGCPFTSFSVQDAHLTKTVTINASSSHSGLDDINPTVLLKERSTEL

Cyclooxygenase-2 (COX-2) [2] = target: T1, Cyclooxygenase-2 (COX-2); assay: purified enzyme turnover, RP-HPLC-MS/MS; type: biochemical

SMILES	purified enzyme, product formation and regioisomers by RP-HPLC-MS/MS (Cyclooxygenase-2 (COX-2) [1])	purified enzyme turnover, RP-HPLC-MS/MS (Cyclooxygenase-2 (COX-2) [2])
CC(=O)Oc1ccccc1C(=O)O [ASA]	ASA increased the rate and extent of formation of OH-DPA (Fig. 3c) and shifted the distribution of hydroxy regioisomers	
CC/C=C\C/C=C\C/C=C\C/C=C\C/C=C\CCCCCC(=O)O [DPA, (7Z,10Z,13Z,16Z,19Z)-docosapentaenoic acid]		purified ovine COX-2 generated the EFOX-D5 precursor, hydroxy-DPA (OH-DPA), from DPA
